The molecule `COc1ccccc1C(=C1CN(C(c2ccccc2)c2ccccc2)C1)S(C)(=O)=O` registered a melting point of 204 °C.

As to `O=C(NNS(=O)(=O)c1ccccc1)c1ccccc1CCc1ccccc1`, the melting point was in the range of 158 to 159 °C.

For `Fc1cccc2cc3cccc(F)c3nc12`, the melting point was in the range of 193 to 195 °C.

Molecule `CC(=O)c1c(-c2ccc(O)c3ccccc23)oc2ccccc12` registered a melting point of 212 to 216 °C.

`CC(C)Cc1ccc2c(c1O)C(=O)c1ccc(CC(C)C)c(O)c1C2=O` returned a melting point of 188 °C.

`CC(C)Cn1c(CN2CCOCC2)nc2c(N)nc3c(c21)CCCC3`: the melting point was 165 to 172 °C.

Molecule `O=C(Oc1ccccc1)N1CCC2(CC1)SC(c1ccccc1F)c1ccccc12` (stereo not drawn) returned a melting point of 122 to 123 °C.

The molecule `CCCCCCC1=CC(O)(C(Br)Br)N(Cc2ccccc2)C1=O` (stereo not drawn) yielded a melting point of 105 to 108 °C.

`CCOC(=O)c1cnn(-c2ccc(OC)c(C#N)c2)c1`: the melting point lay in the range of 192 to 193 °C.

As for `COc1ccc(-n2c3ccccc3c3cc(C(C#N)=C(C#N)c4cc(F)cc(F)c4)ccc32)cc1`, the melting point is 140 to 142 °C.

Molecule `CCc1nc2c(cnn2CC)c(NC2CCOCC2)c1CNC(=O)c1cccc(C(=O)NCc2ccc(F)c(-c3cccc(CN4CCNC(=O)C4)c3)c2)c1` gave a melting point of 147 to 150 °C.

In the case of `CONC(=O)c1cc(C)c(C(c2cc(F)ccc2F)S(=O)(=O)c2ccc(F)cc2)cn1` (stereo not drawn), the melting point is 231 to 234 °C.

For `O=C1CCCC(c2ccccc2)N1c1ccc(F)cc1` (stereo not drawn), the melting point lay in the range of 87.5 to 88.5 °C.

In turn, `CNc1nc2ccccc2cc1N` returned a melting point of 133 to 136 °C.

`COc1ccc(C2=NN(Cc3ccc(C(=O)O)cc3)C(=O)[C@H]3CCCC[C@@H]23)cc1OC` (relative stereo) gave a melting point of 135 to 139 °C.

As for `Cc1nc2ccc(F)cc2[nH]c1=O`, the melting point fell in the range of 258 to 260 °C.

Consider `CC(=O)NCCc1ccc(C=O)cc1`, for which the melting point is 81 to 83 °C.

Turning to `Cc1c(C(=O)O)cnn1-c1ccc([N+](=O)[O-])cc1`, the melting point worked out at 202 °C.

With `COC(=O)C#CC(=O)c1ccccc1C`, the melting point was 43 to 45 °C.

`O=C(Nc1ccc(OC(F)F)cc1)N1N=C(c2ccc(Cl)cc2)CC1c1ccc(Cl)cc1` (stereo not drawn): the melting point is 174 °C.

In turn, `COc1ccc(C2=C(C(=O)O)N(Cc3ccc4c(c3)OCO4)S(=O)(=O)c3ccccc32)cc1OC` showed a melting point of 267 to 268 °C.

The molecule `CN(Cc1ccccc1)C(=O)c1cnc2c3c(c(F)cc2c1)C(=O)C(C(=O)O)C=N3` (stereo not drawn) had a melting point of 168 to 171 °C.

`COC(=O)c1cccc(-c2cccc(Oc3cc(Cl)cc(Cl)c3)n2)c1` gave a melting point of 125 to 126 °C.

The molecule `CCON=Cc1cnnc2ccccc12` gave a melting point of 78 to 81 °C.

In turn, `CCOC(=O)CCc1cc(C(=O)CCCC(=O)O)ccc1OC` returned a melting point of 124 to 126 °C.

`O=C(O)c1cc(=O)c(Sc2ccccc2)co1` yielded a melting point of 178 to 181 °C.

`c1cc(C2=NOC(C3CC3)C2)ccn1` (stereo not drawn) displayed a melting point of 102 to 108 °C.

`Cc1c(C)c(N2CCN(c3ccc(C#N)cc3)CC2)c(C)c2c1OC(C)(C)C2` yielded a melting point of 255 to 257 °C.

On to `CC(C)c1nn(-c2ccc(C(F)(F)F)cn2)cc1CCCCOS(C)(=O)=O`, for which the melting point lay within 87 to 89 °C.

`CC(=O)OCc1cc2c3ccccc3[nH]c(=O)n2n1`: the melting point is 177 to 179 °C.

In turn, `Cc1cc(C)c(Nc2nc(C)ncc2S(=O)(=O)c2ccc(-c3ncccn3)cc2)c(C)c1` displayed a melting point of 215 to 217 °C.

`O=C(N=C1SCCN1Cc1cnc(Cl)s1)c1ccccc1`: the melting point was found to be 120 °C.

For `COc1ccc(CNc2cccc3nc(-c4cccc(Cl)c4)oc23)cc1OC1CCCC1`, the melting point lay in the range of 133 to 134 °C.

In turn, `CC(C)(C)c1cc(NC(=O)c2cncc3cc(Oc4cc(N)ncn4)ccc23)n(-c2ccc(F)cc2)n1` came in with a melting point of 124 to 126 °C.

`O=C(Nc1ccc(-n2nc(-c3ccoc3)cc2OC(F)F)cc1)c1ccncc1F` gave a melting point of 172 to 174 °C.

With `COc1cc(OC)nc(NC(=O)NS(=O)(=O)c2c(OC)ccc3snnc23)n1`, the melting point lay in the range of 120 to 129 °C.

`CC(=O)Nc1ccc(C2COc3cc(O)c(O)cc3C2)cc1` (stereo not drawn) yielded a melting point of 201 to 203 °C.

`CCCc1c(OCc2ccccc2)ccc2c(=O)cc(C(=O)OCC)[nH]c12`: the melting point was 121 to 122 °C.

Turning to `CCCCCC(C)C(C)c1cc(O)c2c(c1)OC(C)(C)C1=C2CN(CC(=O)NC(N)=O)CC1` (stereo not drawn), the melting point was in the range of 131 to 133 °C.

As to `N=C(N)NCCOc1ccc2c(c1)CC(CCC(=O)O)C(=O)N2` (stereo not drawn), the melting point lay in the range of 119 to 122 °C.

Molecule `CCOC(=O)C(C)Oc1ncn(-c2cccc(Cl)c2)n1` (stereo not drawn) came in with a melting point of 70 to 72 °C.

`COc1ccc(C(C)(O)c2cccc(OCc3nc(-c4ccccc4)oc3C)c2)c(OCC(=O)O)c1` (stereo not drawn) came in with a melting point of 148 to 149 °C.

On to `CN1C(=O)CC(c2ccccc2)C1C(O)Cc1cccc(Cl)c1` (stereo not drawn), for which the melting point was 50 to 52 °C.

Molecule `COc1ccc(-c2nc(C(=O)Nc3c(C)cccc3C)c[nH]2)cc1OC1CCCC1` registered a melting point of 118 to 122 °C.

`COc1cccc(C2COc3c(C)c(C)c(NC(=O)CC(C)(C)C)c(C)c32)c1` (stereo not drawn) yielded a melting point of 169 to 170 °C.

Take `CC(C)(C)OC(=O)C1CCN(C(=O)OCc2ccccc2)N1` (stereo not drawn): the melting point is 55 to 57 °C.

`CCCc1nn(C)c2c(=O)[nH]c(Cc3ccc(NC(C)=O)cc3)nc12` returned a melting point of 272 to 275 °C.

`CC(C)=CCN1CCN(CCC(=O)N2c3ccccc3C(=O)Nc3cccnc32)CC1` returned a melting point of 199 to 201 °C.

For `Cc1ccc2c(c1)N=C(N1CCC(C)CC1)c1cccc3c1N2CC3`, the melting point lay within 194 to 196 °C.

`Cc1c(C)c(N)c2c(c1C)C(c1ccc(C(C)C)cc1)CO2` (stereo not drawn) showed a melting point of 122 to 123 °C.

`CCOC(=O)N1CC[C@@H](O)[C@H](c2ccccc2)C1` (relative stereo) returned a melting point of 49.5 to 58 °C.

Molecule `CCCSc1cccc(-c2nc(=O)c3ccccc3s2)n1` showed a melting point of 124 to 125 °C.

With `O=C(O)CCc1conc1-c1ccc(Cl)cc1`, the melting point was in the range of 149 to 150 °C.

In turn, `CC(C)CC1(C(CCN2C(=O)c3c(F)c(F)c(F)c(F)c3C2=O)C(=O)NO)CCN(Cc2ccccc2)C1=O` (stereo not drawn) returned a melting point of 183 to 185 °C.

With `O=c1n(-c2ccc(Cl)cc2)c(=O)n(SC(Cl)(Cl)Cl)n1SC(Cl)(Cl)Cl`, the melting point is 169 °C.

Consider `Cc1[nH]cnc1CSCCCN=C(NC#N)NCCc1c[nH]cn1`, for which the melting point lay in the range of 135 to 137 °C.

Molecule `CCCCNC(=O)NS(=O)(=O)c1ccc(CCNC(=O)N2CC(C)=CC2=O)cc1` gave a melting point of 189 to 191 °C.

Molecule `COCOc1cc(OCOC)c2c(=S)cc(C)oc2c1` registered a melting point of 109 to 110 °C.

In turn, `COc1ccc2c(-c3ccc(Cl)cc3F)noc2c1Cl` came in with a melting point of 193 to 194 °C.

Turning to `FC(F)(F)CSc1nc(-c2ccccc2)c(-c2ccccc2)[nH]1`, the melting point is 186 to 187 °C.

Consider `CCCCCCCC(=O)CCC(=O)O`, for which the melting point fell in the range of 78 to 78.5 °C.

Molecule `CSc1ccc(-c2nc(SC)c(C(=O)O)c(=O)n2-c2ccc(C)cc2)cc1` gave a melting point of 173 to 175 °C.

Molecule `CCCNCCc1cccc(NS(=O)(=O)c2cccc(Cl)c2)c1` gave a melting point of 145 to 148 °C.

The record behind these values is a melting point compilation (Tetko et al.; mined from patent text by program, amines drawn as free bases though some values may be those of a salt).
